pIC50: −log10 of the molar value.
What was measured:
[1] = human, microsomes
[2] = test system: HD-MB03; assay: cells; details: Homo sapiens, HD-MB03, 72 h
[3] = test system: D283 Med; assay: cells; details: Homo sapiens, 72 h
[4] = cells; details: Homo sapiens, NALM16, 72 h
[5] = in vitro; details: human, plasma
[6] = in vitro; details: human, plasma; remark: listed apart in the source
[7] = molecular target: T1, Bromodomain-containing protein 2 (Homo sapiens, UniProt P25440); assay: Inhibition of BRD2 BD1 (unknown origin) by TR-FRET assay
[8] = molecular target: T1, Bromodomain-containing protein 2; assay: Inhibition of BRD2 BD2 (unknown origin) by TR-FRET assay
[9] = test system: MOLM-13; assay: cells; details: Homo sapiens, MOLM-13, 72 h
[10] = test system: MV4-11; assay: cells; details: Homo sapiens, MV4-11, 72 h
[11] = molecular target: T2, Bromodomain-containing protein 4 (Homo sapiens, UniProt O60885)
[12] = molecular target: T2, Bromodomain-containing protein 4; remark: listed apart in the source

T1 sequence (P25440 whole entry): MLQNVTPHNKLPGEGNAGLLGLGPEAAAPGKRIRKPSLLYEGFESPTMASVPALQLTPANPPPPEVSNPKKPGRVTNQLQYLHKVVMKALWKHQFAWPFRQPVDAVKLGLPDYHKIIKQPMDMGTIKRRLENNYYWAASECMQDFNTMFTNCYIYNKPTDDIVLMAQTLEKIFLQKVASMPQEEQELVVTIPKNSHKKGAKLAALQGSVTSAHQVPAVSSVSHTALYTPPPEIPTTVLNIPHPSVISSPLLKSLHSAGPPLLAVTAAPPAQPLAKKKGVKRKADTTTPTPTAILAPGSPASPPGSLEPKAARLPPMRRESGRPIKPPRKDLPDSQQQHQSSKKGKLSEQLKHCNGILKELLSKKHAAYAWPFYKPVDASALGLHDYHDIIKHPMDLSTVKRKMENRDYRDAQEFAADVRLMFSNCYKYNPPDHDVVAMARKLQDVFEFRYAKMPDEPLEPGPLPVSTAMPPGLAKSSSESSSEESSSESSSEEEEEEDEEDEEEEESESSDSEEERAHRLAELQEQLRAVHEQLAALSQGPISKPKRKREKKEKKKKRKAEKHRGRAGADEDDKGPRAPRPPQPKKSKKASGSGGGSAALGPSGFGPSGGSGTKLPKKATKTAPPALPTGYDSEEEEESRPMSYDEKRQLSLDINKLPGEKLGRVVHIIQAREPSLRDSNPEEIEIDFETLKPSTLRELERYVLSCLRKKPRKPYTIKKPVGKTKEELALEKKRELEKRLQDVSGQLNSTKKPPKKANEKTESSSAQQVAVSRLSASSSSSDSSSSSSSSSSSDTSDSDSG

Row | SMILES | t1/2 [1] [h] | pIC50 [2] | pIC50 [3] | pIC50 [4] | half-life at 48 h [5] [h] | fraction unbound [6] | pIC50 [7] | pIC50 [8] | pIC50 [9] | pIC50 [10] | pIC50 [11] | pIC50 [12]
1 | Cc1sc2c(c1C)C(c1ccc(Cl)cc1)=N[C@@H](CC(=O)OC(C)(C)C)c1nnc(C)n1-2 | 0.4 | 7.05 | 7.22 | 7.74 | > 100 | 0.008 |  |  |  |  |  | 
2 | Cc1sc2c(c1C)C(c1ccc(Cl)cc1)=N[C@@H](CC(=O)NCCc1c[nH]c3ccccc13)c1nnc(C)n1-2 |  | 6.60 |  | 6.76 |  |  | 6.60 | 7.30 | 6.50 | 6.74 |  | 
3 | COC(=O)[C@H](Cc1c[nH]cn1)NC(=O)C[C@@H]1N=C(c2ccc(Cl)cc2)c2c(sc(C)c2C)-n2c(C)nnc21 |  |  | 5.53 | 6.10 |  |  | 7.49 | 8.05 | 6.70 | 5.94 | 7.47 | 8.22
4 | Cc1sc2c(c1C)C(c1ccc(Cl)cc1)=N[C@@H](CC(=O)NCCO)c1nnc(C)n1-2 |  | 7.38 | 6.38 | 8.15 |  |  |  |  | 8.10 |  |  | 
5 | Cc1sc2c(c1C)C(c1ccc(Cl)cc1)=N[C@@H](CC(=O)NCc1ccccc1)c1nnc(C)n1-2 |  | 6.21 |  | 6.34 | > 100 |  | 7.68 | 9.70 | 6.41 |  |  | 9.52
6 | Cc1sc2c(c1C)C(c1ccc(Cl)cc1)=N[C@@H](CC(=O)NCc1cn(C)cn1)c1nnc(C)n1-2 |  | 6.45 | 6.10 | 7.03 | > 100 |  | 7.77 | 8.52 | 7.28 | 6.84 | 7.09 | 9.22
7 | Cc1sc2c(c1C)C(c1ccc(Cl)cc1)=N[C@@H](CC(=O)NCc1cn(C)nn1)c1nnc(C)n1-2 |  | 7.40 |  | 7.85 | > 100 |  | 6.19 |  | 7.96 | 7.23 | 5.85 | 7.59
8 | Cc1sc2c(c1C)C(c1ccc(Cl)cc1)=N[C@@H](CC(=O)NCc1c[nH]nn1)c1nnc(C)n1-2 |  | 8.52 | 6.02 | 8.15 | > 100 |  | 8.10 |  | 8.52 | 6.60 | 7.10 | 9.00

Source: ChEMBL document CHEMBL5346911, “From PROTAC to inhibitor: Structure-guided discovery of potent and orally bioavailable BET inhibitors” (Eur J Med Chem, 2023)
